# According to ChEMBL document CHEMBL4229538, “Design, synthesis and structure-activity relationship of diaryl-ureas with novel isoxazol[3,4-b]pyridine-3-amino-structure as multi-target inhibitors against receptor tyrosine kinase” (Bioorg Med Chem, 2018):
# Columns and labels:
# HUVEC = assay: Antiproliferative activity against HUVEC after 72 hrs by cell titer glo-based fluorescence assay; details: Homo sapiens
# MV4-11 = assay: Antiproliferative activity against human MV4-11 cells after 72 hrs by cell titer glo-based fluorescence assay; details: MV4-11, 72 h
# MCF7 = assay: Antiproliferative activity against human MCF7 cells after 72 hrs by cell titer glo-based fluorescence assay; details: MCF7, 72 h
# [1] = biological target: Platelet-derived growth factor receptor beta (Homo sapiens, UniProt P09619); assay: Inhibition of human PDGFRbeta using biotin labeled substrate after 1 hr by HTFR assay
# Sequence of Platelet-derived growth factor receptor beta (P09619 whole entry): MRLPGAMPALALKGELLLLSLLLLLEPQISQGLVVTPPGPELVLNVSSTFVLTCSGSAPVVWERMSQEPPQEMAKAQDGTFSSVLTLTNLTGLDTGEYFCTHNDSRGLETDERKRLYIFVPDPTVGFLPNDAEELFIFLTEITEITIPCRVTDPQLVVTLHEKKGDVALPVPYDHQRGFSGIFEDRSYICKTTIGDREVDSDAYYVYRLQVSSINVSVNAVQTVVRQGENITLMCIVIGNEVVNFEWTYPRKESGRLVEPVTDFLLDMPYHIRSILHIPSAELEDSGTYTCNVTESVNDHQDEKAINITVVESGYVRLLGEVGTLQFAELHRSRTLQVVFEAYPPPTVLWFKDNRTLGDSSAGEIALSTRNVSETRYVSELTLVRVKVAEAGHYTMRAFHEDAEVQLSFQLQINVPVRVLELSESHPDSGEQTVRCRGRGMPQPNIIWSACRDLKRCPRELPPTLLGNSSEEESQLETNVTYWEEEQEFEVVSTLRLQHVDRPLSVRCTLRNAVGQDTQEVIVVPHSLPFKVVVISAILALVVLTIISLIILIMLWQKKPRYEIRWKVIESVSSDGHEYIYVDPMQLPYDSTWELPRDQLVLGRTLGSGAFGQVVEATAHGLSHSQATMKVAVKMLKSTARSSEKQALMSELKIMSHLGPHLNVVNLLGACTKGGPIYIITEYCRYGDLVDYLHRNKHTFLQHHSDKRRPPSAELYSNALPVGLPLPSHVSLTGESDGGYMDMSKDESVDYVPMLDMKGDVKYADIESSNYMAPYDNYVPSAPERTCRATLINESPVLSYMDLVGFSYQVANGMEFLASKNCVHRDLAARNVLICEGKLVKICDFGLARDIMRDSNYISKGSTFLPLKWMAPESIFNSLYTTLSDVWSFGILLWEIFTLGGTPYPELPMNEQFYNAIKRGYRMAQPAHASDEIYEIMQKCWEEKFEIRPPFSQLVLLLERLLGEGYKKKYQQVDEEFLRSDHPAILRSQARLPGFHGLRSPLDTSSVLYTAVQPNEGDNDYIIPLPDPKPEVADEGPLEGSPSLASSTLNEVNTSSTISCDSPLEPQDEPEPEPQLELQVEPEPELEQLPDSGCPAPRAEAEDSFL
# [2] = biological target: Vascular endothelial growth factor receptor 2 (Homo sapiens, UniProt P35968)
# Sequence of Vascular endothelial growth factor receptor 2 (P35968 whole entry): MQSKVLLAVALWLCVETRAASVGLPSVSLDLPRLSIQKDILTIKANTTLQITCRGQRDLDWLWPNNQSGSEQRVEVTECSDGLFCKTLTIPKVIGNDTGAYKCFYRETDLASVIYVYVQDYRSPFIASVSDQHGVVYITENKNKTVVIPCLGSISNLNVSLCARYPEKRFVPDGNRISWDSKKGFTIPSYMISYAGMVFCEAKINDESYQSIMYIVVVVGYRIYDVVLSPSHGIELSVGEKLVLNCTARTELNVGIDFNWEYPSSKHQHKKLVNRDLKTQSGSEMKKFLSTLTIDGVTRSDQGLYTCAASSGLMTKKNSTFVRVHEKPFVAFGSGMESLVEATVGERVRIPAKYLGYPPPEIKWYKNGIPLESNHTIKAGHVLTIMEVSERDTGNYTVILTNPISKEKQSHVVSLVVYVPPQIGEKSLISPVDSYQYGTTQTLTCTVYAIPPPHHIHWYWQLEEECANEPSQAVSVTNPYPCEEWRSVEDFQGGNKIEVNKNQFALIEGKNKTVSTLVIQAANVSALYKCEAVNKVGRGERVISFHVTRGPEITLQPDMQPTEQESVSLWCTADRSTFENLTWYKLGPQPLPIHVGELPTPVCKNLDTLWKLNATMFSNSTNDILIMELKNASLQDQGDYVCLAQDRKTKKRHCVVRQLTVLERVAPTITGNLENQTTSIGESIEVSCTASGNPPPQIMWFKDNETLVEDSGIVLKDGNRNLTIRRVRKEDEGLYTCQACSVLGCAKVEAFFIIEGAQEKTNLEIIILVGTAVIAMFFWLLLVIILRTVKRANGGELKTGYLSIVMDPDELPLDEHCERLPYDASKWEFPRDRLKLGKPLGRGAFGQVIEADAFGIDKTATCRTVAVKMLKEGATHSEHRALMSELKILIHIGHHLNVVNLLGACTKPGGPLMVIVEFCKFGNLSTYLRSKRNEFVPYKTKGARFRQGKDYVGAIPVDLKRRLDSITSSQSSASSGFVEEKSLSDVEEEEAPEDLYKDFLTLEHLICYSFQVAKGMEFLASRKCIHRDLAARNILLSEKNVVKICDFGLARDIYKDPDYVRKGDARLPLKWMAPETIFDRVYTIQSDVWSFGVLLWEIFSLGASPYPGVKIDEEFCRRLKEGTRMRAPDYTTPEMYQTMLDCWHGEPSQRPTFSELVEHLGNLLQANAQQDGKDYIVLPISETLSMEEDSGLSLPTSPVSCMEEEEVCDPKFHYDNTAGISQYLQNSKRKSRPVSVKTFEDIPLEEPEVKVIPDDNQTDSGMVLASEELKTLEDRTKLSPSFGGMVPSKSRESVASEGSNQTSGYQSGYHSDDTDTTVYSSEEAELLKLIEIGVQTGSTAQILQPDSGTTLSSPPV
# Description: Inhibition of human KDR using biotin labeled substrate after 1 hr by HTFR assay
# [3] = biological target: T1, Receptor-type tyrosine-protein kinase FLT3 (Homo sapiens, UniProt P36888)
# T1 sequence (P36888 whole entry): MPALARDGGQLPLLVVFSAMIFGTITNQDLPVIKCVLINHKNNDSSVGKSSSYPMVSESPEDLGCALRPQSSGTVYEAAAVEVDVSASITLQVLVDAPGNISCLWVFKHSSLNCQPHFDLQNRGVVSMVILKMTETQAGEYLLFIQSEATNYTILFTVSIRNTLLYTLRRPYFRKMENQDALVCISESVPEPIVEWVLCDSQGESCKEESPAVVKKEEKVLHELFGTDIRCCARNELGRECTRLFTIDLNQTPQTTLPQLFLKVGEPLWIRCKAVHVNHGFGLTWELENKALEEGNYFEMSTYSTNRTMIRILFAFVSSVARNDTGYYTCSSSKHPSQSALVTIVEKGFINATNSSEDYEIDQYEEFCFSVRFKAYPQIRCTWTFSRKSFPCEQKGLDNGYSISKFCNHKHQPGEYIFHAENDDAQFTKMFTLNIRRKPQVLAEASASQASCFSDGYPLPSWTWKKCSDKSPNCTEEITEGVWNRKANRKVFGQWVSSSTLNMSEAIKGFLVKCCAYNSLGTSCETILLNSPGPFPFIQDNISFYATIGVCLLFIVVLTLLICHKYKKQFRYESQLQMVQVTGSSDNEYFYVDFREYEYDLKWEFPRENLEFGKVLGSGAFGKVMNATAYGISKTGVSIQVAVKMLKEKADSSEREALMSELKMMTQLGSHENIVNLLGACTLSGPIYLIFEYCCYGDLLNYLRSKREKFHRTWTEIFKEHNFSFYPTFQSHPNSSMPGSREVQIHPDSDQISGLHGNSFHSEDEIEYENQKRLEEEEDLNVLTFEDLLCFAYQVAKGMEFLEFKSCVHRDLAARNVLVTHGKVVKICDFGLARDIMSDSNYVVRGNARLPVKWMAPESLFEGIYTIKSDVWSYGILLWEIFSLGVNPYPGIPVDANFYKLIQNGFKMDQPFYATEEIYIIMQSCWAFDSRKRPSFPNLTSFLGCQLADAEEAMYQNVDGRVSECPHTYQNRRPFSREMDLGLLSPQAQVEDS
# Description: Inhibition of human FLT3 using biotin labeled substrate after 1 hr by HTFR assay
structure (smiles),measurement,setting,value
Cc1cc(-c2ccc(NC(=O)Nc3cccc(Cl)c3)cc2)c2c(N)onc2n1,IC50,HUVEC,15200 nM
same,IC50,MV4-11,540 nM
same,IC50,MCF7,39500 nM
same,IC50,[1]; read-out: IC50,40 nM
Cc1cccc(NC(=O)Nc2ccc(-c3cc(-c4ccccc4)nc4noc(N)c34)cc2)c1,IC50,[1]; read-out: IC50,1230 nM
C=C(CN1CCOCC1)C(=O)Nc1ccc(NC(=O)Nc2ccc(-c3cc(C)nc4noc(N)c34)cc2)cc1C,IC50,[1]; read-out: IC50,510 nM
COc1ccc(NC(=O)Nc2ccc(-c3cc(-c4ccccc4)nc4noc(N)c34)cc2)cc1,IC50,[1],Not Active
same,IC50,[2],Not Active
C/C=C\C(=O)Nc1ccc(NC(=O)Nc2ccc(-c3cc(C)nc4noc(N)c34)cc2)cc1C,IC50,[1],Not Active
same,IC50,[2],Not Active
Cc1cc(-c2ccc(NC(=O)Nc3cccc(C(F)(F)F)c3)cc2)c2c(N)onc2n1,IC50,HUVEC,7950 nM
same,IC50,MV4-11,610 nM
same,IC50,MCF7,37400 nM
same,IC50,[1]; read-out: IC50,20 nM
Nc1onc2nc(-c3ccccc3)cc(-c3ccc(NC(=O)Nc4cccc(Cl)c4)cc3)c12,IC50,[1]; read-out: IC50,2230 nM
Nc1onc2nc(-c3ccccc3)cc(-c3ccc(NC(=O)Nc4ccc(Cl)c(C(F)(F)F)c4)cc3)c12,IC50,[1]; read-out: IC50,290 nM
Cc1cccc(NC(=O)Nc2ccc(-c3cc(C)nc4noc(N)c34)cc2)c1,IC50,HUVEC,11700 nM
same,IC50,MV4-11,120 nM
same,IC50,MCF7,10500 nM
same,IC50,[1]; read-out: IC50,8 nM
Nc1onc2nc(-c3ccccc3)cc(-c3ccc(NC(=O)Nc4cccc(F)c4)cc3)c12,IC50,[1]; read-out: IC50,3250 nM
C/C=C\C(=O)Nc1ccc(NC(=O)Nc2ccc(-c3cc(C)nc4noc(N)c34)cc2)cc1,IC50,[1],Not Active
same,IC50,[2],Not Active
Nc1onc2nc(-c3ccccc3)cc(-c3ccc(NC(=O)Nc4ccc(F)cc4)cc3)c12,IC50,[1]; read-out: IC50,3780 nM
Cc1ccc(NC(=O)Nc2ccc(-c3cc(-c4ccccc4)nc4noc(N)c34)cc2)cc1,IC50,[1]; read-out: IC50,1260 nM
same,IC50,[2],Not Active
Nc1onc2nc(-c3ccccc3)cc(-c3ccc(NC(=O)Nc4ccccc4F)cc3)c12,IC50,[3],Not Active
same,IC50,[1],Not Active
same,IC50,[2],Not Active
Cc1cc(-c2ccc(NC(=O)Nc3ccc(Cl)c(C(F)(F)F)c3)cc2)c2c(N)onc2n1,IC50,HUVEC,12600 nM
same,IC50,MV4-11,340 nM
same,IC50,MCF7,28800 nM
same,IC50,[1]; read-out: IC50,20 nM
C=CC(=O)Nc1ccc(NC(=O)Nc2ccc(-c3cc(-c4ccccc4)nc4noc(N)c34)cc2)cc1,IC50,[3],Not Active
same,IC50,[1],Not Active
same,IC50,[2],Not Active
Nc1onc2nc(-c3ccccc3)cc(-c3ccc(NC(=O)Nc4ccccc4)cc3)c12,IC50,[1]; read-out: IC50,3520 nM
same,IC50,[2],Not Active
Cc1cc(-c2ccc(NC(=O)Nc3ccccc3Cl)cc2)c2c(N)onc2n1,IC50,[1]; read-out: IC50,820 nM
Cc1ccc(F)c(NC(=O)Nc2ccc(-c3cccc4[nH]nc(N)c34)cc2)c1 [LINIFANIB],IC50,HUVEC,40100 nM
same,IC50,MV4-11,690 nM
same,IC50,MCF7,17000 nM
